Laboratory results from patent US6878746B2, “Carbamate and thiocarbamate podophyllotoxin derivatives, preparation method and pharmaceutical compositions containing them” (priority 2000, dated 2005).

What was measured:
[1] = system: Lewis lung carcinoma (LLC); assay: Anti-tumour activity on Lewis lung carcinoma; format: in vivo, B6D2F1 mice; details: D 4, 8, 12; for T/C %: increase in survival time; for Survivors D90: surviving animals on day 90, 7 animals per group
Description: Lewis lung carcinoma (LLC) is a solid tumour that appeared spontaneously in the lungs of a C57B1/6 mouse and is maintained by successive transplants of fragments by the s.c. route. The LLC was obtained from the Division of Cancer Treatment, Tumor Repository, National Cancer Institute, Frederick, Md., USA. The mice, which are 4 to 6 weeks old, were obtained from Iffa Credo (Lyon, France), and weighed from 20 to 22 g at the beginning of the experiment.
On the first day of the experiment (D0), the tumours are removed and cut into fragments of approximately 30 mg which are immediately grafted by the s.c. route into the B6D2F1 mice. The mice into which the fragments have been implanted are then randomly divided into the treated groups and the control group (7 animals per group).
The parameter used for evaluating the anti-tumour activity is the increase in survival time.
In addition, the number of surviving animals in each group is counted at the end of the experiment on day 90.
The products were administered in accordance with the scheme shown below. The results are expressed as % T/C, calculated in the same manner as in the preceding test: […]

murine leukaemia L1210 = assay: In vitro cytotoxicity, Microculture Tetrazolium Assay; format: cell-based; details: exposure for four doubling periods (48 or 96 hours)
Description: (§1) The compounds of the invention were tested on various human and murine cell lines: • murine leukaemia L1210, • epidermoid carcinoma A-431, • non-small-cell lung carcinoma A549, • small-cell lung carcinoma H69, • colon carcinoma HT29, • buccal epidermoid carcinoma KB-3-1.
(§2) The cells are cultured in RPMI 1640 complete culture medium comprising 10% foetal calf serum, 2 mM glutamine, 50 units/ml of penicillin, 50 μg/ml of streptomycin and 10 mM Hepes, pH 7.4. The cells are distributed on microplates and are exposed to the cytotoxic compounds for four doubling periods, that is to say 48 hours or 96 hours. The number of viable cells is then quantified by a colorimetric assay, the Microculture Tetrazolium Assay (J. Carmichael et al., Cancer Res.; 47, 936-942, (1987)). The results are expressed as IC50, the cytotoxic concentration that inhibits the proliferation of the treated cells by 50%.

P388 (murine leukaemia) = assay: Anti-tumour activity on P388 leukaemia; format: in vivo, female BDF1 mice; details: 6.25 mg/kg, intravenous route on day 1; tumour cells inoculated i.p.
Description: Line P388 (murine leukaemia) was supplied by the National Cancer Institute (Frederick, USA). The tumour cells (10^6 cells) were inoculated on day 0 into the peritoneal cavity of female BDF1 mice (Iffa-Credo, France) weighing from 18 to 20 g (groups of 6 animals).
The products were administered by the intravenous route on day 1.
The anti-tumour activity is expressed as % T/C: [formula] For information only, the compound of Example 6 is active against P388 leukaemia and induces a T/C of 203% at 6.25 mg/kg. *Anti-tumour Activity of the Compounds on Lewis Lung Carcinoma: […]

L1210 cells = assay: Action on the cell cycle (propidium iodide); format: cell-based, murine; details: 100 nM, after 21 hours; control: 20%
Description: L1210 cells are incubated for 21 hours at 37° C. in the presence of various concentrations of test compounds. The cells are then fixed using 70% ethanol (v/v), washed twice in PBS and incubated for 30 minutes at 20° C. in PBS that contains 100 μg/ml of RNAse and 50 μg/ml of propidium iodide. The results are expressed as a percentage of the cells that have accumulated in the G2+M phase after 21 hours compared with the control (control: 20%). At a concentration of 100 nM, the compound of Example 6 induces an 86% accumulation of the cells in the G2+M phase after 21 hours.

[2] = system: buccal epidermoid carcinoma KB-3-1; assay: In vitro cytotoxicity, Microculture Tetrazolium Assay; format: cell-based, human; details: exposure for four doubling periods (48 or 96 hours)
Description: as §1, §2

[3] = system: non-small-cell lung carcinoma A549; assay: as above; format: cell-based, human; details: exposure for four doubling periods (48 or 96 hours)
Description: as §1, §2

colon carcinoma HT29 = assay: as above; format: cell-based, human; details: exposure for four doubling periods (48 or 96 hours)
Description: as §1, §2

[4] = system: epidermoid carcinoma A-431; assay: as above; format: cell-based, human; details: exposure for four doubling periods (48 or 96 hours)
Description: as §1, §2

[5] = system: small-cell lung carcinoma H69; assay: as above; format: cell-based, human; details: exposure for four doubling periods (48 or 96 hours)
Description: as §1, §2

Compound	T/C % ([1]; 25 mg/kg i.v.) [%]	Survivors D90 ([1]; 25 mg/kg i.v.)	IC50 (murine leukaemia L1210) [nM]	T/C (P388 (murine leukaemia)) [%]	T/C % ([1]; 3.12 mg/kg i.v.) [%]	Survivors D90 ([1]; 3.12 mg/kg i.v.)	accumulation of the cells in the G2+M phase (L1210 cells) [%]	IC50 [2] [nM]	IC50 [3] [nM]	IC50 (colon carcinoma HT29) [nM]	IC50 [4] [nM]	IC50 [5] [nM]
COc1cc([C@@H]2c3cc4c(cc3[C@@H](OC(=O)N(C)CCN(C)C)[C@@H]3COC(=O)[C@@H]23)OCO4)cc(OC)c1O [Example 1, (5S,5aS,8aS,9R)-9-(4-Hydroxy-3,5-dimethoxyphenyl)-8-oxo-5,5a,6,8,8a,9-hexahydro-furo[3′,4′:6,7]naphtho[2,3-d][1,3] dioxol-5-yl 2-(dimethylamino)ethyl(methyl)carbamate]	165	1/7	–	–	–	–	–	–	–	–	–	–
(5S,5aS,8aS,9R)-9-(4-Hydroxy-3,5-dimethoxyphenyl)-8-oxo-5,5a,6,8,8a,9-hexahydro-furo[3′,4′:6,7]naphtho[2,3-d][1,3]dioxol-5-yl-2-(dimethylamino)ethylcarbamate [Example 6]	–	–	38	203	168	1/7	86	85	46	121	71	96
